Experiment in all cases: relative viability (nuclei count vs DMSO), 5 days (fraction); higher = more cells survive
Compound in the test “IMD-0354 + Phenformin”: O=C(Nc1cc(C(F)(F)F)cc(C(F)(F)F)c1)c1cc(Cl)ccc1O [IMD-0354] + N=C(N)NC(=N)NCCc1ccccc1 [Phenformin] (partner 250 µM)
In a few lines: (§1)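 After 5 days of treatment, lung cancer cells in 1536-well plates were fixed and stained in a single step (final 0.05% Triton X-100, 1% formaldehyde, 1 ug/ml Hoechst) and their nuclei counted on 4× images. Treatment had been applied by pin tool the day after seeding as one drug alone or as a fixed anchor-drug dose with five library-drug doses (not always all listed) in √10 steps. Relative viability is the nuclei count of treated wells divided by that of vehicle wells, and values are medians of duplicate plates.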

Compound in the test “IMD-0354 + Tozasertib”: O=C(Nc1cc(C(F)(F)F)cc(C(F)(F)F)c1)c1cc(Cl)ccc1O [IMD-0354] + Cc1cc(Nc2cc(N3CCN(C)CC3)nc(Sc3ccc(NC(=O)C4CC4)cc3)n2)n[nH]1 [Tozasertib] (partner 0.1 µM)
In a few lines:
as §1

Compound in the test “IMD-0354 + Palbociclib”: O=C(Nc1cc(C(F)(F)F)cc(C(F)(F)F)c1)c1cc(Cl)ccc1O [IMD-0354] + CC(=O)c1c(C)c2cnc(Nc3ccc(N4CCNCC4)cn3)nc2n(C2CCCC2)c1=O [Palbociclib] (partner 0.5 µM)
The method, boiled down:
as §1

Compound in the test “IMD-0354 + Alpelisib”: O=C(Nc1cc(C(F)(F)F)cc(C(F)(F)F)c1)c1cc(Cl)ccc1O [IMD-0354] + Cc1nc(NC(=O)N2CCC[C@H]2C(N)=O)sc1-c1ccnc(C(C)(C)C(F)(F)F)c1 [Alpelisib] (partner 2 µM)
In a few lines:
as §1

We go through four cell lines from the supplement of paper PMC10307832.

As for NCI-H650, the relative viability in the test with IMD-0354 + Phenformin (first compound 0.04 µM) is 0.448; in the test with IMD-0354 + Phenformin (first compound 0.1265 µM), 0.451; in the test with IMD-0354 + Phenformin (first compound 0.4 µM), 0.371; with IMD-0354 + Phenformin (first compound 1.265 µM), 0.234; with IMD-0354 + Phenformin (first compound 4 µM) it was 0.2; with IMD-0354 + Tozasertib (first compound 0.04 µM), 0.834. For the same cell line, the relative viability was 0.745 with IMD-0354 + Tozasertib (first compound 0.1265 µM); 0.644 with IMD-0354 + Tozasertib (first compound 0.4 µM); 0.36 in the test with IMD-0354 + Tozasertib (first compound 1.265 µM); 0.2 with IMD-0354 + Tozasertib (first compound 4 µM); 0.301 with IMD-0354 + Palbociclib (first compound 0.04 µM); 0.283 in the test with IMD-0354 + Palbociclib (first compound 0.1265 µM). In addition, the relative viability came out at 0.322 with IMD-0354 + Palbociclib (first compound 0.4 µM); 0.232 in the test with IMD-0354 + Palbociclib (first compound 1.265 µM); 0.189 with IMD-0354 + Palbociclib (first compound 4 µM); 1.03 with IMD-0354 + Alpelisib (first compound 0.04 µM); 1.07 with IMD-0354 + Alpelisib (first compound 0.1265 µM); 0.943 with IMD-0354 + Alpelisib (first compound 0.4 µM). The relative viability in the test with IMD-0354 + Alpelisib (first compound 1.265 µM) worked out at 0.615; in the test with IMD-0354 + Alpelisib (first compound 4 µM), 0.215.

Regarding NCI-H661, the relative viability with IMD-0354 + Phenformin (first compound 0.04 µM) was determined as 0.268; in the test with IMD-0354 + Phenformin (first compound 0.1265 µM), 0.249; with IMD-0354 + Phenformin (first compound 0.4 µM) it was 0.224; with IMD-0354 + Phenformin (first compound 1.265 µM) it was 0.198; in the test with IMD-0354 + Phenformin (first compound 4 µM), 0.232; with IMD-0354 + Tozasertib (first compound 0.04 µM) it was 0.319. In addition, the relative viability with IMD-0354 + Tozasertib (first compound 0.1265 µM) is 0.344; with IMD-0354 + Tozasertib (first compound 0.4 µM), 0.34; with IMD-0354 + Tozasertib (first compound 1.265 µM) it was 0.273; with IMD-0354 + Tozasertib (first compound 4 µM), 0.257; with IMD-0354 + Palbociclib (first compound 0.04 µM), 0.397; in the test with IMD-0354 + Palbociclib (first compound 0.1265 µM), 0.385. For the same cell line, the relative viability was 0.369 with IMD-0354 + Palbociclib (first compound 0.4 µM); 0.276 with IMD-0354 + Palbociclib (first compound 1.265 µM); 0.253 with IMD-0354 + Palbociclib (first compound 4 µM); 0.838 with IMD-0354 + Alpelisib (first compound 0.04 µM); 0.772 with IMD-0354 + Alpelisib (first compound 0.1265 µM); 0.401 with IMD-0354 + Alpelisib (first compound 0.4 µM). Besides, the relative viability in the test with IMD-0354 + Alpelisib (first compound 1.265 µM) is 0.345; with IMD-0354 + Alpelisib (first compound 4 µM), 0.248.

In the case of NCI-H727, the relative viability worked out at 0.483 with IMD-0354 + Phenformin (first compound 0.04 µM); 0.407 with IMD-0354 + Phenformin (first compound 0.1265 µM); 0.426 with IMD-0354 + Phenformin (first compound 0.4 µM); 0.307 in the test with IMD-0354 + Phenformin (first compound 1.265 µM); 0.402 with IMD-0354 + Phenformin (first compound 4 µM); 0.602 with IMD-0354 + Tozasertib (first compound 0.04 µM). Moreover, the relative viability with IMD-0354 + Tozasertib (first compound 0.1265 µM) stood at 0.673; with IMD-0354 + Tozasertib (first compound 0.4 µM), 0.489; in the test with IMD-0354 + Tozasertib (first compound 1.265 µM) it was 0.539; with IMD-0354 + Tozasertib (first compound 4 µM), 0.453; with IMD-0354 + Palbociclib (first compound 0.04 µM), 0.502; in the test with IMD-0354 + Palbociclib (first compound 0.1265 µM) it was 0.582. In addition, the relative viability in the test with IMD-0354 + Palbociclib (first compound 0.4 µM) amounted to 0.667; with IMD-0354 + Palbociclib (first compound 1.265 µM) it was 0.709; in the test with IMD-0354 + Palbociclib (first compound 4 µM), 0.455; in the test with IMD-0354 + Alpelisib (first compound 0.04 µM), 0.606; in the test with IMD-0354 + Alpelisib (first compound 0.1265 µM), 0.641; with IMD-0354 + Alpelisib (first compound 0.4 µM), 0.497. Moreover, the values for the relative viability in the test with IMD-0354 + Alpelisib (first compound 1.265 µM) and with IMD-0354 + Alpelisib (first compound 4 µM) were 0.396 and 0.352, respectively.

NCI-H838: the relative viability with IMD-0354 + Phenformin (first compound 0.04 µM) was 0.685; in the test with IMD-0354 + Phenformin (first compound 0.1265 µM), 0.448; in the test with IMD-0354 + Phenformin (first compound 0.4 µM), 0.358; in the test with IMD-0354 + Phenformin (first compound 1.265 µM), 0.234; in the test with IMD-0354 + Phenformin (first compound 4 µM), 0.207; with IMD-0354 + Tozasertib (first compound 0.04 µM), 0.299. Moreover, the relative viability came to 0.286 with IMD-0354 + Tozasertib (first compound 0.1265 µM); 0.2 with IMD-0354 + Tozasertib (first compound 0.4 µM); 0.191 with IMD-0354 + Tozasertib (first compound 1.265 µM); 0.172 in the test with IMD-0354 + Tozasertib (first compound 4 µM); 0.223 with IMD-0354 + Palbociclib (first compound 0.04 µM); 0.23 with IMD-0354 + Palbociclib (first compound 0.1265 µM). Moreover, the relative viability with IMD-0354 + Palbociclib (first compound 0.4 µM) amounted to 0.178; in the test with IMD-0354 + Palbociclib (first compound 1.265 µM), 0.186; in the test with IMD-0354 + Palbociclib (first compound 4 µM), 0.151; with IMD-0354 + Alpelisib (first compound 0.04 µM), 1.19; with IMD-0354 + Alpelisib (first compound 0.1265 µM), 1.06; with IMD-0354 + Alpelisib (first compound 0.4 µM), 0.445. The relative viability with IMD-0354 + Alpelisib (first compound 1.265 µM) is 0.615; in the test with IMD-0354 + Alpelisib (first compound 4 µM) it was 0.331.
